# In publication PMC5648515, “A novel small molecule inhibitor of p32 mitochondrial protein overexpressed in glioma” (Journal of Translational Medicine, 2017):
# Target: T1, p32 (C1qBP) (Homo sapiens, UniProt Q07021)
# T1 construct: Human recombinant p32 (OriGene)
# T1 sequence (Q07021 74-282): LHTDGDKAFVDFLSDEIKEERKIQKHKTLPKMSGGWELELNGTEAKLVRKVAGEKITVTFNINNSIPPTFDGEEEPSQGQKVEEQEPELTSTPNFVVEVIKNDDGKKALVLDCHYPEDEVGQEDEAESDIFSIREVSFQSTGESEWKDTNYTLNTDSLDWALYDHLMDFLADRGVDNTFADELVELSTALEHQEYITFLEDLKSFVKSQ
# Test: fluorescence polarization competition with 5-FAM-labelled cyclic LyP-1 peptide; protein thermal shift with […] M36
# Format: binding
structure (smiles),measurement,value
O=C(NCCCNC(=O)Nc1cccc(C2=NCCN2)c1)Nc1cccc(C2=NCCN2)c1 [M36],p32 thermal shift stability change,P32 protein stability was altered by M36 as observed by a shift in the melting curve of the protein
